Patent US11559482B2, “Biodegradable polyethylene glycol based water-insoluble hydrogels” (Ascendis Pharma A/S, priority 2009, dated 2023)

Assay: Injectability: force versus flow using a 30 G needle
Assay type: physicochemical
Conditions: 1 mL syringe
Experimental: 5 mL insulin-linker-hydrogel prodrug 29 (bead size distribution from 32-75 μm, 18 mg insulin/ml insulin-linker-hydrogel prodrug suspension) was buffer exchanged into pH 5.0 succinic acid/tris (10 mM, 40 g/L mannitol; 10 g/L trehalose dihydrate; 0.05% TWEEN-20). The insulin-linker-hydrogel prodrug suspension was filled into a 1 mL syringe (length 57 mm) via a 20 G needle. The 20 G needle was replaced by a 30 G needle and placed into the syringe mounting (Aqua Computer GmbH&Co. KG) and the measurement was started with a piston velocity of 172 mm/min (equals 50 μL/s) (Force test stand: Multitest 1-d, Data recording software: EvaluatEmperor Lite, Version 1.16-015, Forge Gauge: BFG 200 N (all Mecmesin Ltd., UK). Experiments with increasing piston velocities shown in the table below were carried out with a new insulin-linker-hydrogel prodrug sample. The experiments with water and ethylene glycol were carried out accordingly. For all of the experiments the same 30 G needle was used.

OCCO [ethylene glycol]
Force (flow 6 sec/mL, 167 μL/sec, piston velocity 573 mm/min): 83 N
Force (flow 8 sec/mL, 125 μL/sec, piston velocity 430 mm/min): 62 N
Force (flow 10 sec/mL, 100 μL/sec, piston velocity 344 mm/min): 51 N
Force (flow 15 sec/mL, 67 μL/sec, piston velocity 229 mm/min): 35 N
Force (flow 20 sec/mL, 50 μL/sec, piston velocity 172 mm/min): 27 N
